Legend:
Assay in all cases: relative viability (nuclei count vs DMSO), 5 days (fraction); higher = more cells survive
[1] = compound: COc1cccc2c1C(=O)c1c(O)c3c(c(O)c1C2=O)C[C@@](O)(C(=O)CO)C[C@@H]3O[C@H]1C[C@H](N)[C@H](O)[C@H](C)O1 [Doxorubicin] + CC(=O)Nc1cccc(-n2c(=O)n(C3CC3)c(=O)c3c(Nc4ccc(I)cc4F)n(C)c(=O)c(C)c32)c1 [Trametinib] (partner 0.02 µM)
Summary of the method: (§1)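 Nuclei were stained with Hoechst during a one-step fixation (final 0.05% Triton X-100, 1% formaldehyde, 1 ug/ml Hoechst) carried out 5 days after dosing, then counted on 4× images. The cells, lung cancer lines in 1536-well plates, had been dosed by pin tool the day after seeding with one drug alone or a fixed anchor-drug dose plus five library-drug doses (not always all listed) in √10 steps. Relative viability is the nuclei count in treated wells divided by that in vehicle wells, and each value is the median of duplicate plates.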

[2] = compound: COc1cccc2c1C(=O)c1c(O)c3c(c(O)c1C2=O)C[C@@](O)(C(=O)CO)C[C@@H]3O[C@H]1C[C@H](N)[C@H](O)[C@H](C)O1 [Doxorubicin] + O=C(CCCCCCC(=O)Nc1ccccc1)NO [Vorinostat] (partner 1 µM)
Summary of the method: as §1

[3] = compound: COC1=C(C=C(C=C1)C2=CC3=NC=CN3C(=N2)NC4=C(C=CC=N4)C(=O)N)OC [BAY61-3606] + CS(=O)(=O)CCNCc1ccc(-c2ccc3ncnc(Nc4ccc(OCc5cccc(F)c5)c(Cl)c4)c3c2)o1 [Lapatinib] (partner 2 µM)
Summary of the method: as §1

[4] = compound: COC1=C(C=C(C=C1)C2=CC3=NC=CN3C(=N2)NC4=C(C=CC=N4)C(=O)N)OC [BAY61-3606] + C[C@]1(O)C[C@@H](c2nc(-c3ccc4ccc(-c5ccccc5)nc4c3)c3c(N)nccn32)C1 [Linsitinib] (partner 1 µM)
Summary of the method: as §1

Work on UMC-11 yielded a relative viability ([1]; first compound 0.001 µM) of 0.948, a relative viability ([1]; first compound 0.003162 µM) of 0.761 and a relative viability ([1]; first compound 0.01 µM) of 0.768. For the same cell line, the relative viability ([1]; first compound 0.03162 µM) was 0.366, the relative viability ([1]; first compound 0.1 µM) was 0.442 and the relative viability ([2]; first compound 0.001 µM) was 0.52. The relative viability ([2]; first compound 0.003162 µM) was 0.354, the relative viability ([2]; first compound 0.01 µM) was 0.432 and the relative viability ([2]; first compound 0.03162 µM) was 0.329. The relative viability ([2]; first compound 0.1 µM) was 0.37, the relative viability ([3]; first compound 0.02 µM) was 1.16 and the relative viability ([3]; first compound 0.06325 µM) was 0.944. The relative viability ([3]; first compound 0.2 µM) was 0.832, the relative viability ([3]; first compound 0.6325 µM) was 1.1 and the relative viability ([3]; first compound 2 µM) was 0.958. The relative viability ([4]; first compound 0.02 µM) was 1.08, the relative viability ([4]; first compound 0.06325 µM) was 1.11 and the relative viability ([4]; first compound 0.2 µM) was 0.995. For the same cell line, the relative viability ([4]; first compound 0.6325 µM) was 1.08 and the relative viability ([4]; first compound 2 µM) was 1.
